Values joined by “and” are separate entries in the source; they are usually repeats but may differ in a detail not shown here. Equal values may be shown once. “Also recorded” adds a separate entry of the source.
What was measured:
[1] = system: NAD metabolome; experiment: NADPARK: metabolomics, RNA-sequencing and cytokines in blood, muscle, CSF; type: in vivo, human; conditions: NR 1000 mg daily
Protocol: A-C: 31P-MRS was performed at baseline (v1) and after 30 days of treatment (v2). A: exemplary data from one subject showing voxel position. Spectra were acquired for each grid position. B (top): average processed spectra from multiple voxels (black) and the model fit (red). B (bottom): the model fit is composed of the convolution of all spectral contributions of a simulated dataset fitted to the experimental data. […] PCr: phosphocreatine. C: comparison of cerebral NAD levels in the placebo (PL) and NR groups at baseline (v1) and visit-2 (v2). […] Individual subjects are indicated by dots. Connecting lines show the change between v1 and v2. The black points and lines show the mean of each group. […] D: FDG-PET data from all subjects in the NR-group, showing the mean NR-Related Pattern (NRRP, top panel), PD-related pattern (PRDP, middle panel), and the overlap of the two (bottom panel). NR partially ameliorates the striatal and thalamic hypermetabolism of PD. E: Between visit changes showing increased NRRP expression in the NR versus the placebo group. The red line indicates mean values before and after the treatment, black lines indicate individuals with a positive NAD response in the MRS analysis, grey lines indicate individuals without an NAD response in the MRS (*p=0.027, permutation test, 1000 iterations). […] G: Metabolomics in PBMCs, muscle, and CSF.
NR has widespread metabolic and regulatory effects. […] These findings indicate that NR supplementation increases both mitochondrial respiration and proteostasis—two hallmark pathogenic processes involved in PD.

[2] = system: individuals with PD; experiment: NR-SAFE: vital signs, body metrics, ECG; type: in vivo, human
Protocol: At screening for trial entry, candidates underwent physical and neurological examination. Enrolled participants were assessed by physical visits by a movement disorder specialist at baseline (visit 1, V1), day 7 (V4), day 14 (V5), day 21 (V6) and day 28 (V7). At baseline and day 28 participants underwent additional assessment with the Movement Disorder Society Unified Parkinson's disease Rating Scale section I-IV (MDS-UPDRS). At all physical visits an electrocardiogram (ECG), vital parameters (blood pressure, pulse, weight, height) and blood samples were obtained. Additional blood samples were taken on day 3 (V2) and day 5 (V3) to assess safety. The participants were interviewed by telephone consultation by a study nurse on day 3 and day 35 to screen for additional adverse events. Participants were instructed to take their anti-Parkinson drugs as they normally would and no changes were made to anti-Parkinson drug treatment during the trial. Adverse events (AEs) were recorded by the investigating physician. These were then classified by severity according to the Common Terminology Criteria for Adverse Events v5.0 (CTCAE)^13 as either mild (1), moderate (2), severe (3), life-threatening (4) or death (5). The AE relation to the study drug was scored as unrelated (1), unlikely (2), possible (3), probable (4) or definitely (5). 13 Freites-Martinez, A., Santana, N., Arias-Santiago, S. & Viera, A. Using the Common Terminology Criteria for Adverse Events (CTCAE—Version 5.0) to Evaluate the Severity of Adverse Events of Anticancer Therapies. Actas Dermosifiliogr (Engl Ed) 112, 90-92 (2021).

[3] = system: NAD metabolome; experiment: NR-SAFE: LC-MS metabolomics of whole blood and urine; type: in vivo, human
Protocol: Sample analysis was carried out by MS-Omics (Vedbok, Denmark) as follows: Polar metabolite profiling of whole blood and urine was performed using a Thermo Scientific Vanquish LC coupled to Thermo Q Exactive HF MS. An electrospray ionization interface was used as ionization source. Analysis was performed in negative and positive ionization mode. The UPLC was performed using a slightly modified version of the protocol described by Hsiao et al. 2018^14. Peak areas were extracted using Compound Discoverer 3.3 (Thermo Scientific). 14 Hsiao, J. J., Potter, O. G., Chu, T. W. & Yin, H. Improved LC/MS Methods for the Analysis of Metal-Sensitive Analytes Using Medronic Acid as a Mobile Phase Additive. Anal Chem 90, 9457-9464 (2018).
Semi-polar metabolite analysis of whole blood was carried out using a Thermo Scientific Vanquish LC coupled to Orbitrap Exploris 240 MS, Thermo Fisher Scientific. An electrospray ionization interface was used as ionization source. Analysis was performed in positive and negative ionization mode under polarity switching. The UPLC was performed using a slightly modified version of the protocol described by Doneanu et al., 2011^15. Peak areas were extracted using Compound Discoverer 3.3 (Thermo Scientific). 15 Doneanu, C. E. UPLC/MS Monitoring of Water-Soluble Vitamin Bs in Cell Culture Media in Minutes (Application note). https://www.waters.com/waters/library.htm?locale=en US&lid=134636355 (2011).
Identification of compounds for both methods was performed at four levels; Level 1: identification by retention times (compared against in-house authentic standards), accurate mass (with an accepted deviation of 3 ppm), and MS/MS spectra; Level 2a: identification by retention times (compared against in-house authentic standards), accurate mass (with an accepted deviation of 3 ppm). Level 2b: identification by accurate mass (with an accepted deviation of 3 ppm), and MS/MS spectra, Level 3: identification by accurate mass alone (with an accepted deviation of 3 ppm).

[4] = system: blood NAD levels; conditions: cited from earlier work
[5] = V1 (baseline), NR 3000 mg daily group, ±sd
[6] = V7 (day 28), NR 3000 mg daily, ±sd
[7] = LC-MS, V1 to V7, 3000 mg NR daily
[8] = LC-MS, V1 to V7, NR group, 3000 mg NR daily

Structure (SMILES): NC(=O)c1ccc[n+]([C@@H]2O[C@H](CO)[C@@H](O)[C@H]2O)c1 [NR, nicotinamide riboside]
- NAD-related metabolites in blood (PBMC), muscle and CSF ([1]; 30 days, metabolomics): highly significant (p<<0.001 for all tests) increases in the acid form of NAD (NAAD), and nicotinamide (Nam) degradation products; also recorded: highly significant increase in NAD-related metabolites in blood, muscle and CSF
- RNA-sequencing in blood and muscle biopsy ([1]; NR group): highly significant (FDR<10^−8) upregulation of the mitochondrial, proteasomal and lysosomal pathways
- inflammatory cytokines in the central nervous system ([1]; Phase I study): downregulates multiple inflammatory cytokines in the central nervous system
- Electrocardiography (ECG) ([2]; NR 3000 mg daily, 4 weeks): no changes of clinical significance
- changes in systolic or diastolic blood pressure, pulse or weight between visit 1 and visit 7 ([2]; NR 3000 mg daily, 4 weeks): No significant changes in systolic or diastolic blood pressure, pulse or weight
- patients who developed asymptomatic bradycardia ([2]; NR group, 3000 mg daily, 4 weeks): Two
- heart rate of patients with asymptomatic bradycardia ([2]; NR group, 3000 mg daily, individual patients): 58 beats/min and 46 beats/min
- Diastolic blood pressure [2, 5]: 74.7 ± 8.49 mmHg
- Pulse [2, 5]: 64.2 ± 14.67 min⁻¹
- Systolic blood pressure [2, 5]: 122.1 ± 12.53 mmHg
- Weight [2, 5]: 79.38 ± 11.92 kg
- Diastolic blood pressure [2, 6]: 76.2 ± 6.81 mmHg
- Pulse [2, 6]: 61.1 ± 12.95 min⁻¹
- Systolic blood pressure [2, 6]: 122.2 ± 7.49 mmHg
- Weight [2, 6]: 79.38 ± 11.79 kg
- Diastolic blood pressure, Δ ([2]; Δ=V7−V1, NR 3000 mg daily, ±sd): 1.5 ± 8.31 mmHg
- Pulse, Δ ([2]; Δ=V7−V1, NR 3000 mg daily, ±sd): -3.1 ± 9.48 min⁻¹
- Systolic blood pressure, Δ ([2]; Δ=V7−V1, NR 3000 mg daily, ±sd): 0.1 ± 8.29 mmHg
- Weight, Δ ([2]; Δ=V7−V1, NR 3000 mg daily, ±sd): 0 ± 0.58 kg
- urine NAD-related metabolites (NAR, Nam, Me-Nam, Me-2-PY, Nam N-oxide) [3, 7]: increase in several NAD-related metabolites
- whole blood ADP-ribose (ADPR) [3, 7]: increase in NAD-derived signaling molecules such as ADP-ribose (ADPR)
- whole blood ATP, GTP, ADP, AMP, adenosine and GDP [3, 7]: unchanged
- whole blood Nam, Nam N-oxide, Me-Nam, Me-2-PY [3, 7]: increased as well
- whole blood nicotinamide mononucleotide (NMN) [3, 7]: elevated levels
- whole blood nicotinic acid adenine dinucleotide (NAAD) [3, 7]: elevated
- NR itself in urine [3, 8]: did not change significantly
- NR itself in whole blood [3, 8]: did not increase
- whole blood HCy, SAM, SAH, SAM/SAH ratio, methionine ([3]; LC-MS, V1 vs V7, 3000 mg NR daily): did not detect a change
- depletion of the methyl-group pool ([3]; NR 3000 mg for 4 weeks): does not cause depletion of the methyl-group pool
- whole blood NAD^+ and NADP^+ levels ([3]; targeted LC-MS, V1 to V7, 3000 mg NR daily): significant increase in whole blood NAD^+ and NADP^+ levels
- whole blood homocysteine (HCy) ([3]; targeted metabolomics, V1 vs V7, 3000 mg NR daily): did not show any HCy elevation
- whole blood methionine levels ([3]; untargeted metabolomics, 3000 mg NR daily): unaffected
- whole blood betaine ([3]; untargeted metabolomics, NR group, 3000 mg NR daily): decreased slightly
- blood NAD levels in a 24h-period after intake ([4]; 1000 mg NR after increasing NR doses twice daily for nine days): stably increased
- blood NAD levels 23.8 h after intake ([4]; 1000 mg NR, single subject): decreased, but not yet to baseline
- time of peak blood NAD levels after intake ([4]; 1000 mg NR, single subject): 7.7 h
- increase of blood NAD^+ levels ([4]; 1000 mg or 2000 mg NR daily, reported studies): 1.37-2.8 fold

Reference: patent publication US20250275995A1, “NICOTINAMIDE RIBOSIDE DOSAGE REGIMEN FOR TREATING PARKINSON'S DISEASE” (VESTLANDETS INNOVASJONSSELSKAP AS (VIS), priority 2022, published 2025)
